Reference: ChEMBL document CHEMBL4651402, “Screening of ~5500 FDA-approved drugs and clinical candidates for anti-SARS-CoV-2 activity” (2021)
Bridge positions count the residues as written; N and C are the ends. Square brackets hold non-standard residues; d marks the D form. Peptide text beside a SMILES is read from it. * marks the point of attachment. NH(β-GlcNAc) = CC(=O)N[C@@H]1[C@@H](O)[C@H](O)[C@@H](CO)O[C@H]1N*; Dap = NC[C@H](N)C(=O)O

Tested on: SARS-CoV-2
Assay: microbe, parasite or virus in culture
Details: Severe acute respiratory syndrome coronavirus 2, Vero C1008, 48 h

SMILES | IC50 [µM] | IC50 (read-out: pIC50 (converted)) [µM]
CC(=O)c1cc2c(o1)C(=O)c1ccccc1C2=O [NAPABUCASIN] | > 20 | > 20
C/N=C(/Cc1ccc2ccccc2c1)NC [NAPACTADINE] | > 20 | > 20
c1ccc2c(CC3=NCCN3)cccc2c1 [NAPHAZOLINE] | > 20 | > 20
O=C1C=CC(=O)c2ccccc21 [NAPHTHOQUINONE] | > 20 | > 20
COc1ccc2cc([C@H](C)CO)ccc2c1 [NAPROXOL] | > 20 | > 20
CC1CN(C)CC2Cc3c(ccc4ccccc34)OC12O (stereo unspecified) [NARANOL] | > 20 | > 20
COc1ccc(C(=O)Cc2c(CCN(C)C)cc3c(c2OC)OCO3)c(C(=O)O)c1OC [NARCEINE] | > 20 | > 20
O=C1C[C@@H](c2ccc(O)cc2)Oc2cc(O)cc(O)c21 [NARINGENIN] | > 20 | > 20
C[C@@H]1O[C@@H](O[C@H]2[C@H](Oc3cc(O)c4c(c3)O[C@H](c3ccc(O)cc3)CC4=O)O[C@H](CO)[C@@H](O)[C@@H]2O)[C@H](O)[C@H](O)[C@H]1O [NARINGIN] | > 20 | > 20
CC(C)[C@H]1CC[C@H](C(=O)N[C@H](Cc2ccccc2)C(=O)O)CC1 [NATEGLINIDE] | > 20 | > 20
CC[C@@H](Nc1c(Nc2cccc(C(=O)N(C)C)c2O)c(=O)c1=O)c1ccc(C)o1 [NAVARIXIN ANHYDROUS] | > 20 | > 20
Cc1cc(C(=O)Nc2nc3cccc(Cl)c3n2[C@@H]2CCCCN(C(=O)/C=C/CN(C)C)C2)ccn1 [NAZARTINIB] | > 20 | > 20
NC[C@H]1O[C@H](O[C@H]2[C@H](O)[C@@H](O)[C@H](N)C[C@@H]2N)[C@H](N)[C@@H](O)[C@@H]1O [NEAMINE] | > 20 | > 20
CCCc1c2oc(C(=O)O)cc(=O)c2cc2c(=O)cc(C(=O)O)n(CC)c12 [NEDOCROMIL] | > 20 | > 20
CCc1nn(CCCN2CCN(c3cccc(Cl)c3)CC2)c(=O)n1CCOc1ccccc1 [NEFAZODONE] | > 20 | > 20
O=c1ncn2nc(Sc3ccc(F)cc3F)ccc2c1-c1c(Cl)cccc1Cl [NEFLAMAPIMOD] | > 20 | > 20
CN1CCOC(c2ccccc2)c2ccccc2C1 (stereo unspecified) [NEFOPAM] | > 20 | > 20
COc1nc(N)nc2c1ncn2[C@@H]1O[C@H](CO)[C@@H](O)[C@@H]1O [NELARABINE] | > 50.1 | > 50.1
COc1ccc(CCC(=O)c2c(O)cc(O[C@@H]3O[C@H](CO)[C@@H](O)[C@H](O)[C@H]3O[C@@H]3O[C@@H](C)[C@H](O)[C@@H](O)[C@H]3O)cc2O)cc1O [NEOHESPERIDIN DIHYDROCHALCONE] | > 20 | > 20
CN(C)C(=O)Oc1cccc([N+](C)(C)C)c1 [NEOSTIGMINE] | > 20 | > 20

SMILES | IC50 [µM] | IC50 (read-out: pIC50 (converted)) [µM]
CC(=O)N[C@@H]1[C@@H](O)[C@H](O)[C@@H](CO)O[C@H]1NC(=O)C[C@@H]1NC(=O)[C@H](CC(C)C)NC(=O)[C@@H]2CNC(=O)C[C@H](NC1=O)C(=O)N[C@@H](Cc1c[nH]c3ccccc13)C(=O)N[C@@H](Cc1ccccc1)C(=O)N2 [NEPADUTANT] (cyclo(D(NH(β-GlcNAc))DWF[Dap]L); lactam 2-5) | > 20 | > 20
CNC(=O)c1c(-c2ccc(F)cc2)oc2cc(N(CCO)S(C)(=O)=O)c(C3CC3)cc12 [NESBUVIR] | > 20 | > 20
O=C1NC(=O)C(Cc2ccc3cc(OCc4ccccc4F)ccc3c2)S1 (stereo unspecified) [NETOGLITAZONE] | > 20 | > 20
Cc1ccccc1-c1cc(N2CCN(C)CC2)ncc1N(C)C(=O)C(C)(C)c1cc(C(F)(F)F)cc(C(F)(F)F)c1 [NETUPITANT] | > 20 | > 20
Cc1ccnc2c1NC(=O)c1cccnc1N2C1CC1 [NEVIRAPINE] | > 20 | > 20
NC(=O)c1cccnc1 [NIACINAMIDE] | > 20 | > 20
O=C(O)c1cccnc1 [NIACIN] | > 20 | > 20
O=C(CCNNC(=O)c1ccncc1)NCc1ccccc1 [NIALAMIDE] | > 20 | > 20
CC(CCN1CCN(c2ccc(F)cc2)CC1)NC(=O)c1cccnc1 (stereo unspecified) [NIAPRAZINE] | > 20 | > 20
COC(=O)C1=C(C)NC(C)=C(C(=O)OCCN(C)Cc2ccccc2)C1c1cccc([N+](=O)[O-])c1 (stereo unspecified) [NICARDIPINE] | > 20 | > 20
CO[C@]12C[C@@H](COC(=O)c3cncc(Br)c3)CN(C)[C@@H]1Cc1cn(C)c3cccc2c13 [NICERGOLINE] | > 20 | > 20
O=C(Nc1ccc([N+](=O)[O-])cc1Cl)c1cc(Cl)ccc1O [NICLOSAMIDE] | > 20 | > 20
O=C(c1cccnc1)N1CCOCC1 [NICOPHOLINE] | > 20 | > 20
O=C(NCCO[N+](=O)[O-])c1cccnc1 [NICORANDIL] | > 20 | > 20
NC(=O)c1ccc[n+]([C@@H]2O[C@H](CO)[C@@H](O)[C@H]2O)c1 [NICOTINAMIDE RIBOSIDE] | > 20 | > 20
CN1CCC[C@H]1c1cccnc1 [NICOTINE] | > 20 | > 20
OCc1cccnc1 [NICOTINYL ALCOHOL] | > 20 | > 20
COC(=O)C1=C(C)NC(C)=C(C(=O)OC)C1c1ccccc1[N+](=O)[O-] [NIFEDIPINE] | > 20 | > 20
Cn1c(NCCN(CCO)CCCc2ccc([N+](=O)[O-])cc2)cc(=O)n(C)c1=O [NIFEKALANT] | > 20 | > 20
O=C(O)c1cccnc1Nc1cccc(C(F)(F)F)c1 [NIFLUMIC ACID] | > 20 | > 20

SMILES | IC50 [µM] | IC50 (read-out: pIC50 (converted)) [µM]
O=C(N/N=C/c1ccc([N+](=O)[O-])o1)c1ccc(O)cc1 [NIFUROXAZIDE] | > 20 | > 20
Cc1cn(-c2cc(NC(=O)c3ccc(C)c(Nc4nccc(-c5cccnc5)n4)c3)cc(C(F)(F)F)c2)cn1 [NILOTINIB] | > 20 | > 20
CC1(C)NC(=O)N(c2ccc([N+](=O)[O-])c(C(F)(F)F)c2)C1=O [NILUTAMIDE] | > 20 | > 20
C/C=C/C[C@@H](C)[C@@H](O)[C@H]1C(=O)N[C@@H](CC)C(=O)N(C)CC(=O)N(C)[C@@H]([C@@H](C)CC)C(=O)N[C@@H](C(C)C)C(=O)N(C)[C@@H](CC(C)C)C(=O)N[C@@H](C)C(=O)N[C@H](C)C(=O)N(C)[C@@H](CC(C)C)C(=O)N(C)[C@@H](CC(C)C)C(=O)N(C)[C@@H](C(C)C)C(=O)N1C [NIM811] | > 20 | > 20
COCCOC(=O)C1=C(C)NC(C)=C(C(=O)OC(C)C)C1c1cccc([N+](=O)[O-])c1 (stereo unspecified) [NIMODIPINE] | > 20 | > 20
O=[N+]([O-])c1cncn1CCN1CCOCC1 [NIMORAZOLE] | > 20 | > 20
Cc1ncc(CNC(=O)N(CCCl)N=O)c(N)n1 [NIMUSTINE] | > 20 | > 20
COC(=O)c1ccc2c(c1)NC(=O)/C2=C(\Nc1ccc(N(C)C(=O)CN2CCN(C)CC2)cc1)c1ccccc1 [NINTEDANIB] | > 20 | > 20
O=C1NCCN1c1ncc([N+](=O)[O-])s1 [NIRIDAZOLE] | > 20 | > 20
COC(=O)C1=C(C)NC(C)=C(C(=O)OCC(C)C)C1c1ccccc1[N+](=O)[O-] (stereo unspecified) [NISOLDIPINE] | > 20 | > 20
CNCCC(Oc1ccccc1OC)c1ccccc1 (stereo unspecified) [NISOXETINE] | > 20 | > 20
CC(=O)Oc1ccccc1C(=O)Nc1ncc([N+](=O)[O-])s1 [NITAZOXANIDE] | > 20 | > 20
CC(=O)Nc1ncc([N+](=O)[O-])s1 [NITHIAMIDE] | > 20 | > 20
CCn1c(=O)c2ccccc2n(-c2cccc([N+](=O)[O-])c2)c1=O [NITRAQUAZONE] | > 20 | > 20
O=C1CN=C(c2ccccc2)c2cc([N+](=O)[O-])ccc2N1 [NITRAZEPAM] | > 20 | > 20
CCOC(=O)C1=C(C)NC(C)=C(C(=O)OC)C1c1cccc([N+](=O)[O-])c1 (stereo unspecified) [NITRENDIPINE] | > 20 | > 20
O=C1CN(/N=C/c2ccc([N+](=O)[O-])o2)C(=O)N1 [NITROFURANTOIN] | > 20 | > 20
NC(=O)N/N=C/c1ccc([N+](=O)[O-])o1 [NITROFURAZONE] | > 20 | > 20
